Columns and labels:
mice = assay: Minimal neurotoxicity in mice, rotorod test; details: up to four hours after dosing, doses as high as 300 mg/kg
Experimental: In mice, the test compound is administered at doses of 30, and 100 mg/kg prior to evaluation in the toxicity screens. The mice are tested at 0.5 hours and 4 hours after intraperitoneal administration of the test compound.
Toxicity in mice weighing between 18 and 25.5 g is assessed using the standardized rotorod test [9]. For each compound tested, a minimum of 18 animals are evaluated for neurotoxicity. Control mice can maintain their equilibrium for an extended period of time when they are placed on a 6-rpm rotation rod. Neurologically impaired animals cannot maintain equilibrium for one minute in each of three successive trials.

MES-induced seizure [1] = assay: Maximal Electroshock Seizure (MES) test in rats, oral administration; format: in vivo; details: for Percentage of rats in which the test compound prevented MES-induced seizure: 30 mg/kg oral
Text: (§1) The Maximal Electroshock Seizure (MES) or Maximal Seizure Pattern Test
(§2) The MES is an experimental model for generalized tonic-clonic seizures that identifies compounds that prevent seizure spread. The MES model is highly reproducible and has a consistent endpoint. An advantage of this model is that the behavioral and electrographic seizures are consistent with those observed in humans.
(§3) In the MES test, the animal receives an electrical stimulus, 0.2 seconds in duration, via corneal electrodes primed with an electrolyte solution containing an anesthetic agent. The 0.2 second stimulation is generated with 150 mA in rats and 50 mA in mice at 60 Hz. […] In rats, the compound is administered orally, while mice receive the agent via intraperitoneal injection. The test endpoint, electrogenic seizure, is manifested as hindlimb tonic extension.
A full dose-response curve was also generated in rats to determine the ED50 value (n=8 at each time point). […] The ED50 of 4,4′-thiodianiline was evaluated in both rats and mice.

MES-induced seizure [2] = assay: Maximal Electroshock Seizure (MES) test in mice, intraperitoneal administration; format: in vivo
Text: as §1, §2, §3

6 Hz seizures = assay: 6 Hz kindling model; format: in vivo, mice
Experimental: The 6 Hz kindling model is another experimental seizure model that effectively detects compounds with anti-seizure activity. This screen is used to evaluate the ability of a compound to prevent the acquisition of focal seizures; in particular, the capacity of a compound to prevent the development of seizures induced by a low-frequency (6 Hz), long duration (three seconds) stimulus in electrode […] is evaluated. Several of the most promising compounds were evaluated in this screen to further characterize their anti-seizure activity.
In the 6 Hz kindling test, mice are implanted with corneal electrodes. The test compound is administered (i.p.) to the animal at 0.25, 0.5, 1, 2, or 4 hours prior seizure induction. The seizure is initiated by delivering a current (32 mA at 6 Hz for three seconds) to the animal through the corneal electrodes. The resulting psychomotor seizure is usually characterized by a minimal clonic phase followed by stereotyped, automatistic behaviors. This response is analogous to the aura of human patients with partial seizures.

[3] = test system: focal seizures in hippocampal kindled rats; assay: Hippocampal kindling model; format: in vivo, Sprague-Dawley rats; design: key to Racine Seizure Score ± SEM: Racine stage 1 to 5; details: for Afterdischarge Duration ± SEM / Racine Seizure Score ± SEM: rats, 100 mg/kg, n=7
Text: Hippocampal Kindling Model
The hippocampal kindling model is an experimental seizure model used to simulate focal seizures. This model evaluates the capacity of a compound to affect both the expression and acquisition of focal seizures. In addition, kindled seizures provide a methodology for studying complex brain networks that may contribute to the spread and generalizations of seizures from a focus. The hippocampal kindling model has the advantage of being one of the only kindling models that can evaluate the temporal effects of an agent in a single animal. For this assessment, bipolar electrodes are surgically implanted in the ventral hippocampus of adult male Sprague-Dawley rats (275-300 g) under ketamine-xylazine anesthesia. Following a one-week recovery period, stage five behavioral seizures are induced by stimulating the rat 12 times per day with 50 Hz, 10 s train of 1 ms biphasic 200 μA pulses delivered every 30 min for six hours on alternating days. After five stimulus days, the animal has had 60 stimulations. A drug free control period with supramaximal stimulations is used to verify the stability of a stage five generalized seizure before the anticonvulsant activity of a drug is measured.
This screen is used to measure the capacity of the drug to prevent the expression of focal seizures. […] The animal is exposed to an initial stimulation of 20 μA; the stimulation is increased in 10 μA increments every one-two minutes until an afterdischarge is recorded. After the stability of the stage five seizure is established, the drug candidate is administered to the rats via intraperitoneal injection 15 minutes after the last control stimulation. Starting with the first dose, the anticonvulsant activity of the test agent is measured every thirty minutes for four hours. Following each stimulation, Racine seizure scores and afterdischarge durations are compared to control values to quantify the anti-convulsant activity of the agent. The Racine seizure scores vary from stage 1 to 5. The stages are characterized according to the following criteria: Stage 1—mouth and facial clonus, Stage 2—stage 1 and head nodding, Stage 3—stage 2 and forelimb clonus, Stage 4—stage 3 and rearing, Stage 5—stage 4 and repeated rearing and falling. Since a single animal is used, each rat serves as its own control.
4,4′-Thiodianiline was used in the rat hippocampal kindled rats to screen to measure its anticonvulsant potential. Doses of 12.5, 25, 50 and 100 mg/kg were evaluated at a minimum of seven time points (n=7 for each dose and each time point). […] After oral administration of the test compound stimulation, the Racine seizure scores and afterdischarge durations were measured and are shown below. The Racine seizure scores dropped from between a stage 4 and stage 5 seizure for control measurements to between a stage 1 and stage 2 seizure after treatment with 4,4′-thiodianiline.

rats = assay: Minimal neurotoxicity in rats, positional sense and gait and stance tests; format: in vivo; details: 1 hour (time to peak effect) after oral administration
Text: If the rat experiences neurological toxicity, it will not be able to quickly lift its leg quickly back to a normal position.
In the gait and stance test, neurotoxicity is indicated by a circular or zigzag gait after administration of the test compound. In addition, ataxia, abnormal spread of the legs, abnormal posture, tremor hyperactivity, lack of exploratory behavior, somnolence, stupor, or catalepsy can indicate neurotoxicity.

[4] = 30 mg/kg i.p., 0.5 h after administration
[5] = 100 mg/kg i.p., 0.5 h after administration
[6] = 100 mg/kg i.p., 4.0 h after administration

For `Nc1ccc(Sc2ccc(N)cc2)cc1` [4,4′-thiodianiline], the “acute neurotoxicity as measured by the rotorod test” value (mice) was “No acute neurotoxicity was observed”, the “Percentage of rats in which the test compound prevented MES-induced seizure” value (“Percentage of rats” below) (MES-induced seizure [1]; 0.25 h after administration) was 100% and the “Percentage of rats” value (MES-induced seizure [1]; 0.5 h after administration) was 100%. The “Percentage of rats” value (MES-induced seizure [1]; 1.0 h after administration) was 100%, the “Percentage of rats” value (MES-induced seizure [1]; 2.0 h after administration) was 100% and the “Percentage of rats” value (MES-induced seizure [1]; 4.0 h after administration) was 100%. The ED50 (MES-induced seizure [1]; Rattus norvegicus, po, read-out: ED50 required to inhibit MES-induced seizure) was 6.6 ± 5.07 mg/kg, the “Time to Peak Effect” value (MES-induced seizure [1]; rat, oral administration, MES test) was 1 h and the “Percentage of mice in which the test compound prevented MES-induced seizure” value (MES-induced seizure [2]; [4]) was 0%. The “Percentage of mice in which the test compound prevented MES-induced seizure” value (MES-induced seizure [2]; 30 mg/kg i.p., 4.0 h after administration) was 0%, the “Percentage of mice in which the test compound prevented MES-induced seizure” value (MES-induced seizure [2]; [5]) was 66% and the “Percentage of mice in which the test compound prevented MES-induced seizure” value (MES-induced seizure [2]; [6]) was 100%. The “Percentage of mice in which the test compound prevented MES-induced seizure” value (MES-induced seizure [2]; 300 mg/kg i.p., 0.5 h after administration) was 100%, the “Percentage of mice in which the test compound prevented MES-induced seizure” value (MES-induced seizure [2]; 300 mg/kg i.p., 4.0 h after administration) was 100% and the ED50 (MES-induced seizure [2]; Mus musculus, ip, 0.5 h, read-out: ED50 (MES)) was 53.4 ± 14.9 mg/kg. For the same compound, the “Percentage of mice in which the test compound prevented seizure in the 6 Hz test” value (“Percentage of mice … in the 6 Hz test” below) (6 Hz seizures; 30 mg/kg i.p., 0.25 h after administration) was 0%, the “Percentage of mice … in the 6 Hz test” value (6 Hz seizures; [4]) was 25% and the “Percentage of mice … in the 6 Hz test” value (6 Hz seizures; 30 mg/kg i.p., 1.0 h after administration) was 25%. The “Percentage of mice … in the 6 Hz test” value (6 Hz seizures; 30 mg/kg i.p., 2.0 h after administration) was 25%, the “Percentage of mice … in the 6 Hz test” value (6 Hz seizures; 80 mg/kg i.p., 0.25 h after administration) was 100% and the “Percentage of mice … in the 6 Hz test” value (6 Hz seizures; 80 mg/kg i.p., 0.5 h after administration) was 100%. The “Percentage of mice … in the 6 Hz test” value (6 Hz seizures; 80 mg/kg i.p., 1.0 h after administration) was 100%, the “Percentage of mice … in the 6 Hz test” value (6 Hz seizures; 80 mg/kg i.p., 2.0 h after administration) was 75% and the “Percentage of mice … in the 6 Hz test” value (6 Hz seizures; 80 mg/kg i.p., 4.0 h after administration) was 0%. For the same compound, the “Percentage of mice … in the 6 Hz test” value (6 Hz seizures; 100 mg/kg i.p., 0.25 h after administration) was 100%, the “Percentage of mice … in the 6 Hz test” value (6 Hz seizures; [5]) was 100% and the “Percentage of mice … in the 6 Hz test” value (6 Hz seizures; 100 mg/kg i.p., 1.0 h after administration) was 100%. For the same compound, the “Percentage of mice … in the 6 Hz test” value (6 Hz seizures; 100 mg/kg i.p., 2.0 h after administration) was 100%, the “Percentage of mice … in the 6 Hz test” value (6 Hz seizures; [6]) was 0% and the ED50 (6 Hz seizures; Mus musculus, ip, read-out: ED50 (6 Hz seizures)) was 30 to 80 mg/kg. The ED50 ([3]; Rattus norvegicus, hippocampal kindled rats, from doses of 12.5, 25, 50 and 100 mg/kg, read-out: ED50, dose required to prevent the expression of focal seizures) was 51.4 mg/kg, the “Afterdischarge Duration ± SEM” value ([3]; 15 min) was 19.14 ± 9.58 s and the “Racine Seizure Score ± SEM” value ([3]; 15 min) was 1.43 ± 0.81. The “Afterdischarge Duration ± SEM” value ([3]; 45 min) was 25.29 ± 13.71 s, the “Racine Seizure Score ± SEM” value ([3]; 45 min) was 1.29 ± 0.84 and the “Afterdischarge Duration ± SEM” value ([3]; 75 min) was 24.86 ± 11.43 s. For the same compound, the “Racine Seizure Score ± SEM” value ([3]; 75 min) was 0.71 ± 0.57, the “Afterdischarge Duration ± SEM” value ([3]; 105 min) was 33.29 ± 14.17 s and the “Racine Seizure Score ± SEM” value ([3]; 105 min) was 1.29 ± 0.64. For the same compound, the “Afterdischarge Duration ± SEM” value ([3]; 135 min) was 34.71 ± 14.35 s, the “Racine Seizure Score ± SEM” value ([3]; 135 min) was 1.57 ± 0.81 and the “Afterdischarge Duration ± SEM” value ([3]; 165 min) was 57.43 ± 18.17 s. The “Racine Seizure Score ± SEM” value ([3]; 165 min) was 1.57 ± 0.65, the “Afterdischarge Duration ± SEM” value ([3]; 195 min) was 55.29 ± 18.19 s and the “Racine Seizure Score ± SEM” value ([3]; 195 min) was 1.57 ± 0.69. For the same compound, the “Afterdischarge Duration ± SEM” value ([3]; 225 min) was 71.29 ± 18.99 s, the “Racine Seizure Score ± SEM” value ([3]; 225 min) was 1.86 ± 0.70 and the “Afterdischarge Duration ± SEM” value ([3]; 255 min) was 65.43 ± 17.91 s. The “Racine Seizure Score ± SEM” value ([3]; 255 min) was 1.86 ± 0.63 and the “ED50 for toxicity relative to ED50 for anti-convulsant activity” value (rats) was roughly 60 times.

— patent publication US7226949B2, “Compounds of use in the treatment of epilepsy, seizure, and electroconvulsive disorders” (University of Kentucky, priority 2002, dated 2007)
